Active and inactive are the calls of the source. No cut-off for these calls is given here.
Experiments:
Proteus vulgaris [1] = test: Antimicrobial activity against Proteus vulgaris ATCC 13315 at 0.5 mg/disk by disk diffusion assay; type: functional
Salmonella typhimurium [2] = test: Antimicrobial activity against Salmonella Typhimurium ATCC 14028 at 0.5 mg/disk by disk diffusion assay; type: functional, Salmonella enterica subsp. enterica serovar Typhimurium
Staphylococcus aureus [3] = test: Antimicrobial activity against Staphylococcus aureus ATCC 25923 at 0.5 mg/disk by disk diffusion assay; type: functional
[4] = system: Staphylococcus epidermidis; test: Antimicrobial activity against Staphylococcus epidermidis ATCC 12228 at 0.5 mg/disk by disk diffusion assay; type: functional
Escherichia coli = test: Antimicrobial activity against Escherichia coli ATCC 25922 at 0.5 mg/disk by disk diffusion assay; type: functional, organism-based
Enterobacter cloacae = test: Antimicrobial activity against Enterobacter cloacae ATCC 23355 at 0.1 mg/disk by disk diffusion assay; type: functional
Salmonella typhimurium [5] = test: Antimicrobial activity against Salmonella Typhimurium ATCC 14028 at 0.1 mg/disk by disk diffusion assay; type: functional, Salmonella enterica subsp. enterica serovar Typhimurium
Staphylococcus aureus [6] = test: Antimicrobial activity against Staphylococcus aureus ATCC 25923 at 0.1 mg/disk by disk diffusion assay; type: functional
[7] = system: Staphylococcus epidermidis; test: Antimicrobial activity against Staphylococcus epidermidis ATCC 12228 at 0.1 mg/disk by disk diffusion assay; type: functional
Serratia marcescens = test: Antimicrobial activity against Serratia marcescens ATCC 8100 at 0.1 mg/disk by disk diffusion assay; type: functional
Klebsiella pneumoniae = test: Antimicrobial activity against Klebsiella pneumoniae ATCC 13883 at 0.1 mg/disk by disk diffusion assay; type: functional
Proteus vulgaris [8] = test: Antimicrobial activity against Proteus vulgaris ATCC 13315 at 0.1 mg/disk by disk diffusion assay; type: functional

SMILES	Activity (Proteus vulgaris [1])	inhibition zone (IZ) (Salmonella typhimurium [2]) [mm]	inhibition zone (IZ) (Staphylococcus aureus [3]) [mm]	inhibition zone (IZ) [4] [mm]	Activity (Escherichia coli)	also measured
CC/C=C\C/C=C\C/C=C\C/C=C\C/C=C\CCCC(=O)OC/C=C(\C)CCCC(C)CCCC(C)CCCC(C)C (stereo unspecified)	Active	>2	>4	>2	–	–
C=CC/C=C\C/C=C\C/C=C\CCCCC(=O)O	Active	>4	>2	>2	Active	–
CC1(C)S[C@@H]2[C@H](NC(=O)[C@H](N)c3ccccc3)C(=O)N2[C@H]1C(=O)O [AMPICILLIN]	–	–	–	–	–	inhibition zone (IZ) (Enterobacter cloacae): >4 mm; inhibition zone (IZ) (Salmonella typhimurium [5]): >4 mm; inhibition zone (IZ) (Staphylococcus aureus [6]): >4 mm; inhibition zone (IZ) [7]: >4 mm
O=C(N[C@H](CO)[C@H](O)c1ccc([N+](=O)[O-])cc1)C(Cl)Cl [CHLORAMPHENICOL]	–	–	–	–	–	inhibition zone (IZ) (Serratia marcescens): >4 mm
CC/C=C\C/C=C\C/C=C\C/C=C\CCCCC(=O)O	–	>2	>2	>2	Active	inhibition zone (IZ) (Proteus vulgaris [1]): >2 mm
CN(C)[C@@H]1C(O)=C(C(N)=O)C(=O)[C@@]2(O)C(O)=C3C(=O)c4c(O)cccc4[C@@](C)(O)[C@H]3C[C@@H]12 [TETRACYCLINE]	–	–	–	–	–	inhibition zone (IZ) (Klebsiella pneumoniae): >4 mm; inhibition zone (IZ) (Proteus vulgaris [8]): >4 mm
